Values quoted from earlier work as cited in US5834196A, “Method for detecting and/or optionally quantifying and/or separating apoptotic cells in or from a sample” (Nexins Research B.V., priority 1994, dated 1998).

Target: annexin V
Conditions: phosphatidyl serine containing membranes; Ca^2+ dependent binding; given as an estimation

Kd: < 0.1 nM
Substance: phosphatidyl serine
